Here are results for 18 compounds from US10807982B2, “Bromodomain inhibitors” (CELGENE QUANTICEL RESEARCH, INC., priority 2015, dated 2020).

pIC50: −log10 of the molar value. Where a name gives a salt, the structure may show the parent alone.

For assay [1], the system named is NCI-H460, human non-small cell lung cancer cells. The assay is described as follows: Cell-MTS cellular proliferation assay, NCI-H460. It is filed as cell-based. The settings on record: Homo sapiens, 168 hr incubation. An outline of the steps: (§1)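 Cells seeded to reach ~90% confluence at 7 days (Raji 15,000, HL-60 5,000, NCI-H460 3,000 per well); 11-point compound dilution, 100 µM to 2.0 nM final, added 24 h after plating. Exposure 168 hr at 37 °C, 5% CO2; MTS read at OD490. IC50 from background-subtracted OD490 normalized to DMSO controls.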

The subject of assay [2] is Raji, human Burkitts lymphoma cells. The assay can be described thus: Cell-MTS cellular proliferation assay, Raji. It is filed as cell-based. As to conditions: Homo sapiens, 168 hr incubation. An outline of the steps: as §1
In another assay the target is BRD4(BD1) (Homo sapiens (Human), UniProt O60885). The assay can be described thus: In vitro enzyme inhibition assay (BRD4 AlphaScreen, H4-tetraacetyl peptide). It is filed as binding. The settings on record: BRD4(BD1) 2 nM, peptide 15 nM. The procedure, abridged:
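His-tagged BRD4(BD1), 2 nM, with 15 nM biotinylated H4K5/8/12/16(Ac) peptide in HEPES pH 7.3 buffer, 0.4% DMSO, 20 min RT with compound. Streptavidin donor and Ni-chelate acceptor beads (5 μg/mL) then equilibrated 2 h. AlphaScreen signal; IC50 by four-parameter fit.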

The test system of assay [3] is HL-60, human proleukemia cells. The assay is described as follows: Cell-MTS cellular proliferation assay, HL-60. The class given is cell-based. As to conditions: Homo sapiens, HL-60 cells, 168 hr incubation. An outline of the steps: as §1

Regarding `CCS(=O)(=O)Nc1cc(-c2cn(C)c(=O)c3ccccc23)c2oc(C3CC3)nc2c1` [Example 48, N-[2-cyclopropyl-7-(2-methyl-1-oxoisoquinolin-4-yl)-1,3-benzoxazol-5-yl]ethanesulfonamide], the pIC50 (in assay [1]; in assay [2]; at BRD4(BD1); in assay [3]) was at least 6.30 in each case.

Consider `CCS(=O)(=O)Nc1cc(-c2cc(OC)c(=O)n(C)c2)c2oc(C3CCCC3)nc2c1` [Example 57, N-[2-cyclopentyl-7-(5-methoxy-1-methyl-6-oxopyridin-3-yl)-1,3-benzoxazol-5-yl]ethanesulfonamide], for which the pIC50 in assay [1] was below 5.30; in assay [2] it was at least 6.30; against BRD4(BD1), at least 6.30; in assay [3], at least 6.30.

Turning to `Cn1cc(-c2cc(S(C)(=O)=O)cc3cc(C4CC4)oc23)c2ccccc2c1=O` [Example 24, 4-(2-cyclopropyl-5-methylsulfonyl-1-benzofuran-7-yl)-2-methylisoquinolin-1-one], the pIC50 is 5.30 to 6.30 in assay [1], at least 6.30 in assay [2], at least 6.30 on BRD4(BD1) and at least 6.30 in assay [3].

As to `CCS(=O)(=O)Nc1cc(-c2cc(C)c(=O)n(C)c2)cc2c1ncn2Cc1ccc(F)cc1F` [Example 41, N-[1-[(2,4-difluorophenyl)methyl]-6-(1,5-dimethyl-6-oxopyridin-3-yl)benzimidazol-4-yl]ethanesulfonamide], the pIC50 in assay [1] was 5.30 to 6.30; in assay [2], at least 6.30; against BRD4(BD1), at least 6.30; in assay [3], at least 6.30.

As to `Cc1cc(-c2cc(NS(C)(=O)=O)cc3cc(-c4ccccc4)oc23)cn(C)c1=O` [Example 83, N-[7-(1,5-dimethyl-6-oxopyridin-3-yl)-2-phenyl-1-benzofuran-5-yl]methane-sulfonamide], the pIC50 was 5.30 to 6.30 in assay [1], 5.30 to 6.30 in assay [2], at least 6.30 against BRD4(BD1) and 5.30 to 6.30 in assay [3].

For the compound `Cc1cc(-c2cc(NS(C)(=O)=O)c3oc(=O)n(Cc4ccc(F)cc4)c3c2)cn(C)c1=O` [Example 102, N-[5-(1,5-dimethyl-6-oxopyridin-3-yl)-3-[(4-fluorophenyl)methyl]-2-oxo-1,3-benzoxazol-7-yl]methanesulfonamide], the pIC50 in assay [1] is below 5.30; in assay [2] it was at least 6.30; at BRD4(BD1) it was at least 6.30; in assay [3], at least 6.30.

Take `Cc1cc(-c2cc(NS(C)(=O)=O)ccc2Oc2ccc(F)cc2F)c2n(c1=O)CC(C)(C)C2` [Example 88, N-[4-(2,4-difluorophenoxy)-3-(2,2,6-trimethyl-5-oxo-1,3-dihydroindolizin-8-yl)phenyl]methanesulfonamide]: the pIC50 in assay [1] was below 5.30; in assay [2] it was at least 6.30; at BRD4(BD1) it was at least 6.30; in assay [3], at least 6.30.

As for `CCCCn1c(C)nc2c(NS(C)(=O)=O)cc(-c3cc(OC)c(=O)n(C)c3)cc21` [Example 95, N-[1-butyl-6-(5-methoxy-1-methyl-6-oxopyridin-3-yl)-2-methylbenzimidazol-4-yl]methanesulfonamide hydrochloride], the pIC50 in assay [1] was below 5.30; in assay [2], at least 6.30; against BRD4(BD1), at least 6.30; in assay [3], at least 6.30.

On to `CCS(=O)(=O)Nc1cc(-c2cc(C)c(=O)n(C)c2)c2oc(C3CCCC3)nc2c1` [Example 52, N-[2-cyclopentyl-7-(1,5-dimethyl-6-oxopyridin-3-yl)-1,3-benzoxazol-5-yl]ethanesulfonamide], for which the pIC50 in assay [1] is below 5.30; in assay [2], at least 6.30; on BRD4(BD1) it was at least 6.30; in assay [3], at least 6.30.

As to `Cc1cc(-c2cc(NS(C)(=O)=O)c3c(F)nn(Cc4ccc(F)cc4)c3c2)cn(C)c1=O` [Example 64, N-[6-(1,5-dimethyl-6-oxopyridin-3-yl)-3-fluoro-1-[(4-fluorophenyl)methyl]indazol-4-yl]methanesulfonamide], the pIC50 in assay [1] was below 5.30; in assay [2] it was at least 6.30; against BRD4(BD1), at least 6.30; in assay [3], at least 6.30.

`CCc1cc2cc(S(C)(=O)=O)cc(-c3cn(C)c(=O)c4ccccc34)c2o1` [4-(2-ethyl-5-(methylsulfonyl)benzofuran-7-yl)-2-methylisoquinolin-1(2H)-one, reference compound]: the pIC50 in assay [1] is 5.30 to 6.30; in assay [2] it was at least 6.30; against BRD4(BD1) it was at least 6.30; in assay [3], at least 6.30.

With `CCS(=O)(=O)N1CCOc2cc(OCC3CC3)c(-c3cc(C)c(=O)n(C)c3)cc21` [Example 50, 5-[7-(cyclopropylmethoxy)-4-ethylsulfonyl-2,3-dihydro-1,4-benzoxazin-6-yl]-1,3-dimethylpyridin-2-one], the pIC50 in assay [1] was below 5.30; in assay [2], at least 6.30; on BRD4(BD1), at least 6.30; in assay [3] it was at least 6.30.

On to `Cc1cc(-c2cc(NS(C)(=O)=O)c3c(F)nn(CC4CC4)c3c2)cn(C)c1=O` [Example 66, N-[1-(cyclopropylmethyl)-6-(1,5-dimethyl-6-oxopyridin-3-yl)-3-fluoroindazol-4-yl]methanesulfonamide], for which the pIC50 in assay [1] was below 5.30; in assay [2], at least 6.30; at BRD4(BD1), at least 6.30; in assay [3], at least 6.30.

Take `COc1nc2c(NS(C)(=O)=O)cc(-c3cc(C)c(=O)n(C)c3)cc2n1CC1CC1` [Example 73, N-[1-(cyclopropylmethyl)-6-(1,5-dimethyl-6-oxopyridin-3-yl)-2-methoxybenzimidazol-4-yl]methanesulfonamide]: the pIC50 is 5.30 to 6.30 in assay [1], at least 6.30 in assay [2], at least 6.30 at BRD4(BD1) and at least 6.30 in assay [3].

Turning to `COc1cc(-c2cc(NS(C)(=O)=O)c3nc(C)n(Cc4ccc(F)cc4)c3c2)cn(C)c1=O` [Example 38, N-[1-[(4-fluorophenyl)methyl]-6-(5-methoxy-1-methyl-6-oxopyridin-3-yl)-2-methylbenzimidazol-4-yl]methanesulfonamide], the pIC50 in assay [1] was below 5.30; in assay [2], at least 6.30; on BRD4(BD1), at least 6.30; in assay [3], at least 6.30.

`Cn1cc(-c2ccc3c(c2)S(=O)(=O)NC3)c2ccccc2c1=O` [Example 2, 4-(1,1-dioxo-2,3-dihydro-1,2-benzothiazol-6-yl)-2-methylisoquinolin-1-one]: the pIC50 is below 5.30 in assay [1], below 5.30 in assay [2], 5.30 to 6.30 against BRD4(BD1) and 5.30 to 6.30 in assay [3].

`Cc1cc(-c2cc3c(nc(C)n3Cc3ccc(F)cc3F)c(NS(C)(=O)=O)n2)cn(C)c1=O` [Example 62, N-[1-[(2,4-difluorophenyl)methyl]-6-(1,5-dimethyl-6-oxopyridin-3-yl)-2-methylimidazo[4,5-c]pyridin-4-yl]methanesulfonamide]: the pIC50 in assay [1] was below 5.30; in assay [2] it was at least 6.30; at BRD4(BD1), at least 6.30; in assay [3], at least 6.30.

Take `Cc1cc(-c2cc3c(nc(C)n3Cc3ccccc3)c(NS(C)(=O)=O)n2)cn(C)c1=O` [Example 61, N-[1-benzyl-6-(1,5-dimethyl-6-oxopyridin-3-yl)-2-methylimidazo[4,5-c]pyridine-4-yl]methanesulfonamide]: the pIC50 in assay [1] was below 5.30; in assay [2], at least 6.30; on BRD4(BD1), at least 6.30; in assay [3] it was at least 6.30.
